Source: patent US20090004683A1, “Indicator Agent for Noninflammatory Stress Response and Use Thereof” (priority 2004, published 2009)

How the values were obtained:
[1] = tested on: IL-18; test: Plasma IL-18 level in restraint stress mice (ELISA); type: in vivo, mouse; conditions: given i.p. during restraint (Ac-YVAD-CHO 200 μM/50 μl, Z-FA-fmk 100 μM/50 μl, SB-203580 100 μg, SOD-1 20 U, DPI 30 μg)
Protocol: (§1) For restraint stress, each mouse was kept in a restrainer (a round plastic tube 27 mm in diameter) for 1, 3 or 6 hours, and IL-18 levels were measured. Regarding the analysis of IL-6, each mouse was restrained as described above, and then housed in the starting cage for 6 hours, after which a measurement was performed.
(§2) After restraint, each mouse was anesthetized with diethyl ether, and blood was drawn into an EDTA-containing tube. Plasma was separated by centrifugation at 4° C. and 10000×g for 10 minutes, and stored at −80° C. IL-18 and IL-6 were analyzed by ELISA using Quantikine™ immunoassay kit (R&D Systems) and OptEIA™ (BD-Pharmingen), respectively.
(§3) The anti-ACTH antiserum (50 μl, 1:1), dexamethasone (1 ng/50 μl PBS(−)) or the anti-IL-18 antibody (50 μl, 1:1) was administered intraperitoneally to each mouse; after 10 minutes elapsed, the animal was kept in a restraint tube for 6 hours. Synthetic ACTH (250 μg/50 μl PBS(−)) was injected to the left leg; after 6 hours elapsed, the mice were subjected to the experiment.
(§4) Each mouse was kept in a restrainer for 1 hour, and Ac-YVAD-CHO (200 μM/50 μl PBS(−)), Z-FA-fmk (100 μM/50 μl PBS(−)) and SB-203580 (100 μg/50 μl PBS(−) per mouse) were administered intraperitoneally. 1 and 3 hours after the start of restraint, SOD-1 (20 U) and DPI (30 μg) were administered intraperitoneally to the mouse, and samples were analyzed by Western blotting.

[2] = target: T1, caspase-1 (Mus musculus, UniProt P29452); test: Caspase-1 activity in the adrenal of restraint stress mice (Ac-YVAD-MCA fluorescent substrate); type: in vivo; conditions: given i.p. during restraint
T1 construct: from tissue; host or cells: mouse adrenal (homogenate)
T1 sequence (P29452 119-296 limits assumed): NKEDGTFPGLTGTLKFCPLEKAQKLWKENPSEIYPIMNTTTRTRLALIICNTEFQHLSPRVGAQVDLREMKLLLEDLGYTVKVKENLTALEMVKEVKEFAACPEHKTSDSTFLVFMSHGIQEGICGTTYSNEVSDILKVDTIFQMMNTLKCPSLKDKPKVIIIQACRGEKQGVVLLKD
T1 sequence (P29452 315-402 limits assumed): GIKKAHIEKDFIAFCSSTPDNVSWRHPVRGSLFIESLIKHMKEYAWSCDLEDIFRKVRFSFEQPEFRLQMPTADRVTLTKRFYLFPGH
Protocol: as §4
Caspase-1 activity in the adrenal was measured using a caspase assay kit (manufactured by BD-Pharmingen). Describing briefly, a homogenate of adrenal tissue was incubated with Ac-YVAD-MCA (acetyl-L-tyrosyl-L-valyl-L-alanyl-L-aspartic acid 4-methyl-coumaryl-7-amide), which is a fluorescent substrate for caspase-1, and the MCA leaving from the aforementioned substrate was measured using a fluorescence plate reader (excitation wavelength 380 nm, irradiation wavelength 420-460 nm).

[3] = tested on: procaspase-11; test: Procaspase-11 protein in the adrenal of restraint stress mice (Western blotting); type: in vivo, mouse; conditions: given i.p. during restraint
Protocol: as §4
(§5) Western blot analysis of IL-18 and phosphorylated P38MAP kinase in adrenal tissue was performed as described below. The adrenal tissue was homogenized in an immunoprecipitation (IP) buffer solution (50 mM Tris pH 7.4, 150 mM NaCl, 0.5% NP-40 and 0.5% sodium deoxycholate) containing a protease inhibitor mixture (manufactured by Roche Diagnostics) using a Polytron homogenizer. […] The aforementioned membrane was incubated with an antibody (IL-18, phosphorylated (Thr180/Tyr182) P38 MAP kinase, caspase-1 or caspase-11), and the reacted protein was detected using an ECL plus system (manufactured by Amersham biosciences). Procaspase-11 and activated P38 MAP kinase were quantified using a Science Lab 99 image analysis system (manufactured by Fujifilm).

[4] = tested on: glyoma cell line C6; conditions: cited from earlier work
[5] = tested on: IL-18 precursor; test: IL-18 (precursor) level in the adrenal of restraint stress mice; type: in vivo, mouse; conditions: given i.p. during restraint
Protocol: as §1, §3, §4
Western blot analysis of IL-18 and phosphorylated P38MAP kinase in adrenal tissue was performed as described below. […] Procaspase-11 and activated P38 MAP kinase were quantified using a Science Lab 99 image analysis system (manufactured by Fujifilm).

[6] = tested on: phosphorylated (Thr180/Tyr182) P38 MAP kinase; test: Phosphorylated P38MAP kinase in the adrenal of restraint stress mice (Western blotting); type: in vivo, mouse; conditions: Western blotting, FIG. 3D
Protocol: as §4
Western blot analysis of IL-18 and phosphorylated P38MAP kinase in adrenal tissue was performed as described below. The adrenal tissue was homogenized in an immunoprecipitation (IP) buffer solution (50 mM Tris pH 7.4, 150 mM NaCl, 0.5% NP-40 and 0.5% sodium deoxycholate) containing a protease inhibitor mixture (manufactured by Roche Diagnostics) using a Polytron homogenizer. The homogenate obtained (100 μg protein) was pre-clarified using protein A/G agarose (Exalpha Biologicals, Inc.), incubated with the anti-mouse IL-18 monoclonal antibody or the anti-phosphorylated (Thr180/Tyr182) P38 MAP kinase antibody and protein A/G agarose (50 μl), and centrifuged (at 13000×g for 25 minutes, 4° C.). The precipitate was boiled, and the adrenal protein was recovered, electrophoresed in 10-20% SDS-polyacrylamide gradient gel, and electrically transferred to a Hybond ECL (manufactured by Amersham) nitrocellulose membrane. The aforementioned membrane was incubated with an antibody (IL-18, phosphorylated (Thr180/Tyr182) P38 MAP kinase, caspase-1 or caspase-11), and the reacted protein was detected using an ECL plus system (manufactured by Amersham biosciences). Procaspase-11 and activated P38 MAP kinase were quantified using a Science Lab 99 image analysis system (manufactured by Fujifilm).

[7] = tested on: phosphorylated P38MAP kinase; test: Immunohistochemistry of phosphorylated P38MAP kinase in adrenal cortex of stress-loaded mice; type: in vivo, mouse; conditions: FIG. 3F
Protocol: The adrenal was fixed in formalin, embedded in paraffin, and cut into 4-μm sections. The aforementioned tissue sections were incubated with an antibody (P38 MAP kinase, caspase-11, caspase-1 (these three were diluted 200 fold) or IL-18 (diluted 400 fold)). Using a horseradish peroxidase-conjugated secondary antibody (manufactured by Santa Cruz) and diaminobenzidin (DBA), color development was performed. For control, sections without the primary antibody and sections derived from a mouse without stress were used.

[8] = tested on: IL-6; test: Plasma IL-6 level in stress-loaded wild type mice (ELISA); type: in vivo, mouse; conditions: stress-loaded WT mice; FIG. 5B
Protocol: as §1, §2
Using IL-18-deficient mice, the relationship between IL-6, which is another stress-related cytokine, and IL-18, was examined. Without stress, IL-6 was undetectable in WT and IL-18 KO, but after 3 hours of stress loading, the IL-6 level was 230 pg/ml in WT and 25 pg/ml in IL-18 KO (FIG. 5A). After liberation from the stress, plasma IL-6 was kept at about 80 pg/ml in WT, but decreased to 5 pg/ml in IL-18 KO (FIG. 5A). Treatment with YVAD-CHO, SOD and anti-IL-18 antibody 70% inhibited the stress-induced increase in plasma IL-6 level in WT (FIG. 5B).

[9] = tested on: IL-18; test: IL-18 in plasma and adrenal after administration of synthetic ACTH; type: in vivo, mouse; conditions: 250 μg injected to the left leg, after 6 hours, no restraint
Protocol: as §2, §3

[10] = tested on: caspase-1; test: Procaspase-1 in the adrenal after ACTH administration (Western blotting); type: in vivo, mouse; conditions: FIG. 2A lane 2
Protocol: as §3, §5

[11] = tested on: Primary culture human skin keratinocytes; test: IL-18 release from keratinocytes with paraquat stimulation; type: cell-based
Protocol: Primary culture human skin keratinocytes (keratinocytes) were cultured in a basal medium for keratinocytes contained in petri dishes for cell culture 6 cm in diameter at 1.0-2.0×10^6/dish. This was cultured in the aforementioned medium containing 1 μM of paraquat, which is an active oxygen generator, for 15 minutes, after which the medium was exchanged with a paraquat-free medium, and the cells were further cultured for 1 hour, after which the medium was collected, and the concentration of IL-18 protein in the medium was measured.

[12] = tested on: Primary culture human skin keratinocytes; test: IL-18 release from keratinocytes with UV-B ray irradiation; type: cell-based; conditions: 100 mJ UV-B, SOD 1-20 U/ml or water-soluble vitamin E 100 nM-10 mM/ml
Protocol: Primary culture human skin keratinocytes (keratinocytes: purchased from CAMBREX Company) were cultured in a basal medium for keratinocytes contained in petri dishes for cell culture 6 cm in diameter at 1.0-2.0×10^6/dish. This was irradiated with 100 mJ of ultraviolet B rays (UV-B rays), after which the cells were cultured for 1 hour, after which the medium was collected, and the concentration of IL-18 protein in the medium was measured. Also, after the UV-B ray treatment, the cells were cultured in a medium containing SOD (1, 2.5, 5, 10, 20 U/ml), which is an active oxygen eliminator, or water-soluble vitamin E (100 nM, 1, 2.5, 5, 10 mM/ml), and the concentration of IL-18 protein in the medium was measured. In the keratinocytes, the activation and release of IL-18 by the active oxygen molecular species were observed. Furthermore, these were suppressed by SOD, which is an active oxygen eliminator, or by vitamin E, which neutralizes active oxygen, dose-dependently (FIGS. 7C and 7D).

[13] = tested on: Brain microglia; test: IL-18 release from microglia with paraquat stimulation; type: cell-based, mouse
Protocol: Brain microglia isolated from the mouse neonatal brain by the method of Hassan et al. (Hassan N F, Rifat S, Campbell D E, McCawley L J, Douglas S D. J. Leukoc Biol. 1991 July; 50(1):86-92) were cultured at 1.5-2.0×10^6/ml. This was cultured in Dulbecco's minimum essential medium containing 100 nM of paraquat, which is an active oxygen generator, for 1 hour, after which the medium was exchanged with a paraquat-free medium. After further cultivation for 3 hours, the medium was collected, and the concentration of IL-18 protein in the medium was measured.

[14] = tested on: Brain astrocytes; test: IL-18 release from astrocytes with paraquat stimulation; type: cell-based, mouse
Protocol: Brain astrocytes isolated from the mouse neonatal brain by the method of Yang et al. (Yang P, Hernandez M R. Brain Res Brain Res Protoc. 2003 October; 12(2):67-76) were prepared at 1.5-2.0×10^6/ml. This was cultured in Dulbecco's minimum essential medium containing 100 nM of paraquat, which is an active oxygen generator, for 1 hour, after which the medium was exchanged with a paraquat-free medium. The cells were further cultured for 3 hours, after which the medium was collected, and the concentration of IL-18 protein in the medium was measured.

[15] = tested on: Abdominal macrophages; test: IL-18 release from macrophages with paraquat stimulation; type: cell-based, mouse; conditions: 100 nM paraquat 15 minutes, SOD 1-20 U/ml
Protocol: Abdominal macrophages isolated from mice by the method of Hamilton et al. (Hamilton T A, Weiel J E, Adams D O., J. Immunol. 1984 May; 132(5):2285-90) were cultured in Dulbecco's minimum essential medium at 1.0-2.0×10^5/dish. The medium was exchanged with the aforementioned medium containing 100 nM of paraquat, which is an active oxygen generator, and the cells were cultured for 15 minutes, after which the medium was exchanged with a paraquat-free medium, and the cells were further cultured for 3 hours, after which the medium was collected, and the concentration of IL-18 protein in the medium was measured.

[16] = tested on: Synovial membrane tissue; test: IL-18 release from synovial membrane tissue with paraquat stimulation; type: cell-based, human; conditions: synovial membrane tissue of articular rheumatism patient, 100 nM paraquat 15 minutes; SOD 1-20 U/ml
Protocol: Synovial membrane tissue collected from the articular synovial membrane at a lesion site of an articular rheumatism patient was subjected to tissue culture in an RPMI-1640 medium containing 10% fetal bovine serum by the method of Tanaka et al. (Tanaka M, Harigai M, Kawaguchi Y, Ohta S, Sugiura T, Takagi K, Ohsako-Higami S, Fukasawa C, Hara M, Kamatani N., J. Rheumatol. 2001 August; 28(8):1779-87). The medium was exchanged with the aforementioned medium containing 100 nM of paraquat, which is an active oxygen generator, and the cells were cultured for 15 minutes, after which the medium was exchanged with a paraquat-free medium, and the cells were further cultured for 1 hour, after which the medium was collected, and the concentration of IL-18 protein in the medium was measured.

[17] = tested on: Primary culture human renal proximal tubular epithelial cells; test: IL-18 release from renal tubular epithelial cells with paraquat stimulation; type: cell-based
Protocol: Primary culture human renal proximal tubular epithelial cells (purchased from CAMBREX Company) were cultured in a basal medium for renal tubular cells: contents 10 μg/ml hEGF (recombinant human epithelial cell growth factor) 0.5 ml, 5 mg/ml insulin 0.5 ml, 0.5 mg/ml hydrocortisone 0.5 ml, FBS (fetal bovine serum) 2.5 ml, 0.5 mg/ml epinephrine 0.5 ml, 6.5 μg/ml triiodothyronine 0.5 ml, 10 mg/ml transferrin 0.5 ml, 50 mg/ml gentamycin, 50 μg/ml amphotericin-B 0.5 ml), in petri dishes for cell culture 6 cm in diameter at 1.0-2.0×10^6/dish. This was cultured in the aforementioned medium containing 100 nM of paraquat, which is an active oxygen generator, for 15 minutes, after which the medium was exchanged with the same but paraquat-free medium. After the cells were further cultured for 1 hour, the medium was collected, and the concentration of IL-18 protein in the medium was measured.

c1ccc2c(c1)[I+]c1ccccc1-2 [DPI, Diphenyleneiodonium chloride]
stress-induced increase in plasma IL-18 level [1]: suppressed

C[S+]([O-])c1ccc(-c2nc(-c3ccncc3)c(-c3ccc(F)cc3)[nH]2)cc1 (centres unmarked) [SB203580]
stress-induced increase in plasma IL-18 level [1]: lower than those in control mice
stress-induced increase in caspase-1 activity in the adrenal [2]: lower than those in control mice
stress-induced increase in procaspase-11 protein [3]: inhibited
activation of caspase-1 subsequent to LPS [4]: suppressed
induction of caspase-11 mRNA by LPS [4]: suppressed

CC(=O)N[C@@H](Cc1ccc(O)cc1)C(=O)N[C@H](C(=O)N[C@@H](C)C(=O)N[C@H](C=O)CC(=O)O)C(C)C [YVAD-CHO, Ac-YVAD-CHO]
stress-induced increase in plasma IL-18 level [1]: effectively inhibited
IL-18 precursor protein level in the adrenal [5]: did not inhibit
stress-induced increase in caspase-1 activity in the adrenal [2]: suppressed
phosphorylation of P38MAP kinase in the adrenal [6]: Neither YVAD-CHO nor Z-FA-fmk influenced
accumulation of phosphorylated P38MAP kinase in adrenal cortex [7]: did not influence
inhibition of the stress-induced increase in plasma IL-6 level [8]: 70%

CC(NC(=O)[C@H](Cc1ccccc1)NC(=O)OCc1ccccc1)C(=O)CF (some centres unmarked) [Z-FA-fmk]
stress-induced increase in plasma IL-18 level [1]: suppressed
stress-induced increase in caspase-1 activity in the adrenal [2]: suppressed
phosphorylation of P38MAP kinase in the adrenal [6]: Neither YVAD-CHO nor Z-FA-fmk influenced
accumulation of phosphorylated P38MAP kinase in adrenal cortex [7]: did not influence

ACTH: Synthetic ACTH (1-24 amino acids) purchased from Peninsula Laboratories Inc. (SYSMEHFRWGKPVGKKRRPVKVYP; Corticotropin; UniProt P01189 138-161, looked up, fragment)
plasma IL-18 level after ACTH administration ([9]; FIG. 1D): rose, but its degree was lower than that with stress loading
IL-18 level in the adrenal after ACTH administration ([9]; FIG. 1E): rose to the same extent as in the case of stress loading
induction of caspase-1 in the adrenal [10]: induced

vitamin E
activation and release of IL-18 into the medium [11]: suppressed
activation and release of IL-18 into the medium [12]: suppressed
activation and release of IL-18 into the medium [13]: suppressed
activation and release of IL-18 into the medium [14]: suppressed
activation and release of IL-18 into the medium [15]: suppressed
activation and release of IL-18 into the medium [16]: suppressed
activation and release of IL-18 into the medium [17]: suppressed
